One block for each compound: values may come before it. Activity calls are given as the source filed them. No cut-off for these calls is given here.
Columns and labels:
[1] = Half life in mouse at 1 mg/kg, iv or 2 mg/kg, po; format: ADME, organism-based; conditions: in vivo
[2] = Oral bioavailability in mouse at 2 mg/kg; format: ADME, organism-based; conditions: in vivo
[3] = Cmax in mouse at 1 mg/kg, iv or 2 mg/kg, po; format: ADME, organism-based; conditions: in vivo
[4] = Plasma clearance in mouse at 1 mg/kg, iv or 2 mg/kg, po; format: ADME, organism-based
[5] = Volume of distribution at steady state in mouse at 1 mg/kg, iv or 2 mg/kg, po; format: ADME, organism-based; conditions: in vivo, read-out: Vdss
Rattus norvegicus [6] = test: Toxicity in rat assessed as changes in rat ear blood perfusion upto 30 mg/kg, sc; format: organism-based; design: dose 30 mg/kg, route subcutaneous; conditions: in vivo
Blood = test: Drug level in rat blood at 30 mg/kg, sc; format: ADME, organism-based; design: dose 30 mg/kg, route subcutaneous; conditions: in vivo, read-out: Drug uptake
Rattus norvegicus [7] = test: Decrease in blood free fatty acid level in rat at 3 mg/kg, po; format: functional; design: scale not given: the % may be the effect or the level left
Rattus norvegicus [8] = test: Decrease in blood free fatty acid level in po dosed rat
[9] = target: Hydroxycarboxylic acid receptor 2 (Homo sapiens) (UniProt Q8TDS4); test: Displacement of [3H]niacin from human niacin receptor expressed in […] cells at 25 uM in absence of 5% human serum; format: cell-based
Chain of Hydroxycarboxylic acid receptor 2 (Homo sapiens) (Q8TDS4 whole entry): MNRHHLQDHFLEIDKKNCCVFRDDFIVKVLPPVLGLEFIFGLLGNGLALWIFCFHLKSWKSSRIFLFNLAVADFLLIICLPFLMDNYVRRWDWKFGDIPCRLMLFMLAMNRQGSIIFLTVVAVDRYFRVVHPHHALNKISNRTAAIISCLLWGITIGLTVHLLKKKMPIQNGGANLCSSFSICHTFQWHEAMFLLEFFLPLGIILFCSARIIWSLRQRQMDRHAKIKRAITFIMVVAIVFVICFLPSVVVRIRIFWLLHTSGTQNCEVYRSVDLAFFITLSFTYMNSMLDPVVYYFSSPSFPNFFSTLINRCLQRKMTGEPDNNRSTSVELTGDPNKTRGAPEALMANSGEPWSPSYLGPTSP

[10] = target: Hydroxycarboxylic acid receptor 2 (Homo sapiens) (UniProt Q8TDS4); test: Displacement of [3H]niacin from human niacin receptor expressed in […] cells at 25 uM in presence of 5% human serum; format: cell-based
Rattus norvegicus [11] = test: Decrease in blood free fatty acid level in rat at 100 mg/kg, po after 20 mins; format: functional, organism-based; design: dose 100 mg/kg

SMILES: O=C(O)c1n[nH]c2c1CC(c1cccnc1F)CC2 (racemic)
half-life [1]: 2.6 h
Activity [9]: 90%
Activity [10]: 88%
bioavailability [2]: 47%
Cmax [3]: 2.3 µM
clearance [4]: 21 mL/min/kg
Vd [5]: 2.4 L/kg

SMILES: O=C(O)c1n[nH]c2c1CC(c1ccccc1)CC2 (racemic)
Activity [9]: 19%
Activity [10]: 35%

SMILES: O=C(O)c1n[nH]c2c1CC(c1ccccc1Cl)CC2 (racemic)
Activity [10]: 20%

SMILES: O=C(O)c1n[nH]c2c1CC(c1ccnc(F)c1)CC2 (racemic)
Activity [9]: 60%
Activity [10]: 69%

SMILES: Fc1ncccc1C1CCC2=C(C1)C(=C1N=NN=N1)N=N2 (centres undefined)
Activity [9]: 40%
Activity [10]: 75%

SMILES: O=C(O)c1n[nH]c2c1CC(c1ccccc1F)CC2 (racemic)
Activity [10]: 18%

SMILES: Fc1ccc(F)c(C2CCc3[nH]nc(-c4nnn[nH]4)c3C2)c1 (racemic)
Activity [10]: 17%

SMILES: O=C(O)c1n[nH]c2c1CCC(c1ccccc1)C2 (racemic)
Activity [9]: 63%

Continued, in another order:

half-life [1]: 2.9 h
bioavailability [2]: 53%
Cmax [3]: 3.3 µM
clearance [4]: 8.3 mL/min/kg
Vd [5]: 1.4 L/kg
SMILES: O=C(O)c1n[nH]c2c1CC(c1cc(F)ccc1F)CC2 (racemic)

concentration (Blood): 135 µM
EC50 (Rattus norvegicus [8]): 3 µM
SMILES: Br.O=C(O)c1n[nH]c2c1CC(c1cc(F)ccc1F)CC2 (centres undefined)
Activity (Rattus norvegicus [6]): Non-toxic
Activity (Rattus norvegicus [7]): 50%

Activity [9]: 56%
Activity [10]: 84%
SMILES: O=C(O)c1n[nH]c2c1CC(c1cc(F)ccc1F)CC2 (centres undefined)
Activity (Rattus norvegicus [11]): Active

From ChEMBL document CHEMBL1154028, “Pyrazole acids as niacin receptor agonists for the treatment of dyslipidemia” (Bioorg Med Chem Lett, 2009)
